{
  "source": "patent US20220193439A1",
  "about": "“TREATMENTS FOR EYE INFECTION” (priority 2020, published 2022)",
  "assay_type_in_all_cases": "cell-based",
  "key": {"Pseudomonas aeruginosa [1]": {"test_system": "Pseudomonas aeruginosa", "experiment": "riboflavin/UVA laser treatment under normoxic conditions, CFU counting (procedure 2210)", "conditions": "UVA laser", "protocol": "According to an example procedure 2210 shown in FIG. 22A, a dilution factor is determined for Pseudomonas aeruginosa bacteria in step 2210a, and the Pseudomonas aeruginosa is loaded into wells in cell culture plate (e.g., a 96-well plate) in step 2210b. […] In particular, a laser beam of ultraviolet A (UVA) light can be applied with a size of approximately 6.5 mm at 8 Hz. A petri dish is inoculated with the mixture from the wells in step 2210e and incubated (e.g., overnight) in step 2210f. After incubation, the effect of the particular treatment parameters is evaluated by counting colony forming units (CFU) in step 2210g."}, "Pseudomonas aeruginosa [2]": {"test_system": "Pseudomonas aeruginosa", "experiment": "riboflavin/UVA laser treatment under hyperoxic conditions, CFU counting (procedure 2220)", "conditions": "for average cell death percentage / CFU: UVA laser, hyperoxic", "protocol": "According to an example procedure 2220 shown in FIG. 22B, a dilution factor is determined for Pseudomonas aeruginosa bacteria in step 2220a, and the Pseudomonas aeruginosa is loaded into wells in cell culture plate (e.g., a 96-well plate) in step 2220b. […] In particular, a laser beam of UVA light can be applied with a size of approximately 6.5 mm at 8 Hz. A petri dish is inoculated with the mixture from the wells in step 2220e, and the petri dish is incubated (e.g., overnight) in step 2220f. After incubation, the effect of the treatment parameters is evaluated by counting CFU in step 2220g."}, "Pseudomonas aeruginosa [3]": {"test_system": "Pseudomonas aeruginosa", "experiment": "riboflavin/UVA LED treatment under normoxic conditions, CFU counting (procedure 2230)", "conditions": "0.1% riboflavin, UVA LED", "protocol": "According to an example procedure 2230 shown in FIG. 23C, a dilution factor is determined for Pseudomonas aeruginosa bacteria in step 2230a, and the Pseudomonas aeruginosa is loaded into wells in cell culture plate (e.g., a 96-well plate) in step 2230b. […] For example, the LED light source may emit UVA light at a size of approximately 6.5 mm. A petri dish is inoculated with the mixture from the wells in step 2230e, and the petri dish is incubated (e.g., overnight) in step 2230f. After incubation, the effect of the treatment parameters is evaluated by counting CFU in step 2230g."}, "[4]": {"test_system": "Pseudomonas aeruginosa bacteria", "experiment": "in vitro study of keratitis treatments, petri dish quadrants scanned with laser beam", "conditions": "dose approx. 4.5 J/cm^2, irradiance approx. 9 mW/cm^2, ambient air, approx. 70 hours after exposure", "from_the_text": "FIG. 13 illustrates an example system 300 for an in vitro study of keratitis treatments. The system 300 includes an illumination system 320 that emits a laser beam that can be scanned across a petri dish containing a sample. The system 300 also includes a UV window 350 that can be selectively employed to transmit UV light in the study. Additionally, the system 300 includes a holder 360 that holds the petri dish. The holder 360 includes tubing to receive and deliver a concentration of O2 to some samples in the study. Furthermore, the system 300 includes a micrometer 370 to determine the position of the holder 360 and thus the petri dish along a vertical axis (z-axis) relative to the illumination system 320.\nFIG. 14A illustrates a petri dish with an example sample 30 for the in vitro study of keratitis treatments employing the system 300. The preparation of the sample 30 involves inoculation with Pseudomonas aeruginosa bacteria (which causes keratitis) and incubation for approximately 48 hours. The resulting bacterial growth in the sample 30 is visible in FIG. 14A. The sample 30 is divided into four quadrants 30a-d to mark areas of the bacterial growth that are exposed to different conditions.\nFIG. 14B illustrates the delivery of the laser beam from the illumination system 320 to selected quadrants of the sample 30. As shown, the laser beam is scanning the second quadrant 30b. […]"}, "bacterial growth": {"test_system": "bacterial growth", "experiment": "riboflavin solution without photoactivation, bacterial growth", "from_the_text": "Studies by the present inventors indicate that the antimicrobial effect depends on UV dose and power."}, "[5]": {"conditions": "0.1% riboflavin, 2.5 mW/cm^2, 2.5 J/cm^2, n=3"}, "[6]": {"conditions": "0.1% riboflavin, 40 mW/cm^2, 40 J/cm^2, n=3"}, "[7]": {"conditions": "0.1% riboflavin, irradiance 2.5 mW/cm^2, dose 2.5 J/cm^2, replicates 1-3"}, "[8]": {"conditions": "0.1% riboflavin, irradiance 40 mW/cm^2, dose 40 J/cm^2, replicates 1-3"}},
  "note": "Where “and” joins values, the source holds several entries; their conditions need not be identical. Identical values can stand only once.",
  "data": [
    {"smiles": "Cc1cc2nc3c(=O)[nH]c(=O)nc-3n(C[C@H](O)[C@H](O)[C@H](O)CO)c2cc1C", "note": "[riboflavin]", "values": [
      {"measurement": "average cell death percentage", "setting": "Pseudomonas aeruginosa [1]; [5]", "value": 29.0, "unit": "%"},
      {"measurement": "average cell death percentage", "setting": "Pseudomonas aeruginosa [1]; [6]", "value": 67.1, "unit": "%"},
      {"measurement": "CFU", "setting": "Pseudomonas aeruginosa [1]; [7]", "value": "82 CFU and 91 CFU (2×)"},
      {"measurement": "CFU", "setting": "Pseudomonas aeruginosa [1]; [8]", "value": "21 CFU and 32 CFU and 61 CFU"},
      {"measurement": "average cell death percentage", "setting": "Pseudomonas aeruginosa [1]; 0.5% riboflavin, 2.5 mW/cm^2, 2.5 J/cm^2, n=3", "value": "−55.4", "unit": "%"},
      {"measurement": "average cell death percentage", "setting": "Pseudomonas aeruginosa [1]; 0.5% riboflavin, 40 mW/cm^2, 40 J/cm^2, n=3", "value": 26.0, "unit": "%"},
      {"measurement": "CFU", "setting": "Pseudomonas aeruginosa [1]; 0.5% riboflavin, irradiance 2.5 mW/cm^2, dose 2.5 J/cm^2, replicates 1-3", "value": "86 CFU (2×) and 51 CFU"},
      {"measurement": "CFU", "setting": "Pseudomonas aeruginosa [1]; 0.5% riboflavin, irradiance 40 mW/cm^2, dose 40 J/cm^2, replicates 1-3", "value": "37 CFU (2×) and 35 CFU"},
      {"measurement": "average cell death percentage", "setting": "Pseudomonas aeruginosa [2]; [5]", "value": 16.1, "unit": "%"},
      {"measurement": "average cell death percentage", "setting": "Pseudomonas aeruginosa [2]; [6]", "value": 82.7, "unit": "%"},
      {"measurement": "CFU", "setting": "Pseudomonas aeruginosa [2]; [7]", "value": "52 CFU and 34 CFU and 12 CFU"},
      {"measurement": "CFU", "setting": "Pseudomonas aeruginosa [2]; [8]", "value": "9 CFU and 14 CFU and 4 CFU"},
      {"measurement": "average cell death percentage", "setting": "Pseudomonas aeruginosa [2]; 0.2% riboflavin, 20 mW/cm^2, 20 J/cm^2, n=3", "value": 58.9, "unit": "%"},
      {"measurement": "average cell death percentage", "setting": "Pseudomonas aeruginosa [2]; 0.2% riboflavin, 40 mW/cm^2, 20 J/cm^2, n=3", "value": 38.1, "unit": "%"},
      {"measurement": "CFU", "setting": "Pseudomonas aeruginosa [2]; 0.2% riboflavin, irradiance 2.5 mW/cm^2, dose 2.5 J/cm^2, replicates 1-3", "value": "140 CFU and 101 CFU and 114 CFU"},
      {"measurement": "CFU", "setting": "Pseudomonas aeruginosa [2]; 0.2% riboflavin, irradiance 40 mW/cm^2, dose 20 J/cm^2, replicates 1-3", "value": "78 CFU and 63 CFU and 77 CFU"},
      {"measurement": "average cell death percentage", "setting": "Pseudomonas aeruginosa [2]; 0.22% riboflavin, 2.5 mW/cm^2, 2.5 J/cm^2, n=3", "value": 13.9, "unit": "%"},
      {"measurement": "average cell death percentage", "setting": "Pseudomonas aeruginosa [2]; 0.22% riboflavin, 40 mW/cm^2, 40 J/cm^2, n=3", "value": 76.9, "unit": "%"},
      {"measurement": "CFU", "setting": "Pseudomonas aeruginosa [2]; 0.22% riboflavin, irradiance 2.5 mW/cm^2, dose 2.5 J/cm^2, replicates 1-3", "value": "218 CFU and 187 CFU and 191 CFU"},
      {"measurement": "CFU", "setting": "Pseudomonas aeruginosa [2]; 0.22% riboflavin, irradiance 40 mW/cm^2, dose 40 J/cm^2, replicates 1-3", "value": "56 CFU and 83 CFU and 33 CFU"},
      {"measurement": "effect of supplemental oxygen on bacterial death", "setting": "Pseudomonas aeruginosa [2]; riboflavin photoactivated with a scanning laser", "value": "does create additional bacterial death"},
      {"measurement": "average cell death percentage", "setting": "Pseudomonas aeruginosa [3]; 8.6 mW/cm^2, 8.6 J/cm^2, n=3", "value": -9.3, "unit": "%"},
      {"measurement": "average cell death percentage", "setting": "Pseudomonas aeruginosa [3]; 75 mW/cm^2, 75 J/cm^2, n=3", "value": 73.6, "unit": "%"},
      {"measurement": "CFU", "setting": "Pseudomonas aeruginosa [3]; irradiance 8.6 mW/cm^2, dose 8.6 J/cm^2, replicates 1-3", "value": "156 CFU and 94 CFU and 124 CFU"},
      {"measurement": "CFU", "setting": "Pseudomonas aeruginosa [3]; irradiance 75 mW/cm^2, dose 75 J/cm^2, replicates 1-3", "value": "26 CFU and 29 CFU and 35 CFU"},
      {"measurement": "bacteria in quadrants that received riboflavin and photoactivating UV light", "setting": "[4]", "value": "effectively eliminated"},
      {"measurement": "effect of riboflavin solution on its own on bacterial growth", "setting": "bacterial growth", "value": "does not directly inhibit bacterial growth"}
    ]}
  ]
}
